The results in this text go back to patent US20230287416A1, “COMBINATORY TREATMENT OF SMA WITH SARNA AND MRNA MODULATORS” (RACTIGEN THERAPEUTICS, priority 2020, published 2023).

Holding throughout (format): cell-based, human
Data set [1] deals with SMN2 mRNA. Nature of the data set: RT-qPCR of SMN2FL and SMN2 Δ7 mRNA in GM00232 cells. To be noted: GM00232, 72 h. Background: Real-time PCR tracks product formation cycle by cycle.
Data set [2] concerns SMN2 mRNA. Nature of the data set: Semi-quantitative RT-PCR/DdeI digestion of SMN2FL and SMN2 Δ7 in GM00232 cells. To be noted: GM00232, 72 h. As to the method:
(§1) To determine whether the combination of saRNA (DS06-0004) and ASO-10-27 has an enhanced effect on SMN2FL induction in type I SMA cells, GM00232 cells were transfected with DS06-0004 and ASO-10-27 alone or in combination at different concentrations for 72 hours. SMN2 expression was assessed in the treated cells by RT-qPCR (FIGS. 4A and 4D) and PCR/digestion (FIGS. 4B, 4C and 4E).
SMA patient derived fibroblasts were obtained from Coriell Institute (Camden, N.J., USA), including GM00232 (SMA type I with 2 copies of SMN2 gene) and GM03813 (SMA type II with 3 copies of SMN2 gene). These cells were cultured at 5% C02 and 37° C. in modified MEM medium (Gibco, Thermo Fisher Scientific, Carlsbad, Calif.) supplemented with 15% bovine calf serum (Sigma-Aldrich), 1% NEAA (Gibco) and 1% penicillin/streptomycin (Gibco). To transfect oligonucleotides including saRNAs, siRNA and ASO, cells were seeded into 6-well plates at a density of 1×10^5 cells/well and were transfected with oligonucleotides at different concentrations using RNAiMax (Invitrogen, Carlsbad, Calif.) according to the reverse transfection protocol provided by the manufacturer for 72 hours (unless otherwise specified). […]
To amplify both SMN2FL and SMN2 Δ7 in one reaction, cDNA was amplified by semi-quantitative RT-PCR using primers that spans exon 7 of SMN2 (Table 5) (FIG. 2). […]

The subject of data set [3] is SMN2 mRNA. Briefly: Semi-quantitative RT-PCR (DdeI digestion) of SMN2FL and SMN2 Δ7 in GM03813 cells. To be noted: GM03813, 72 h. As to the method: Seventy-two hours later, total cellular RNA was isolated from the treated cells and reverse transcribed into cDNA. SMN2 mRNA expression was assessed with RT-qPCR using primer pairs specific for SMN2FL or SMN2 Δ7. SMN2 mRNA expression was also assessed by semi-quantitative RT-PCR using a primer pair that amplifies both SMN2FL and SMN2 Δ7 followed by DdeI digestion (PCR/digestion). […] After digestion, both bands were reduced by 115 bp, resulting in two products: 392 bp (SMN2FL) and 338 bp (SMN2 Δ7) as shown on the gel of FIG. 3D. FIG. 3A-3D show dose-dependent changes in SMN2FL and SMNΔ7 mRNA as assessed by RT-qPCR and PCR/digestion respectively. FIG. 3E-3G are graphic plots of data from quantitating the intensity of bands in FIG. 3D.
(§2) SMA patient derived fibroblasts were obtained from Coriell Institute (Camden, N.J., USA), including GM00232 (SMA type I with 2 copies of SMN2 gene) and GM03813 (SMA type II with 3 copies of SMN2 gene). These cells were cultured at 5% C02 and 37° C. in modified MEM medium (Gibco, Thermo Fisher Scientific, Carlsbad, Calif.) supplemented with 15% bovine calf serum (Sigma-Aldrich), 1% NEAA (Gibco) and 1% penicillin/streptomycin (Gibco). To transfect oligonucleotides including saRNAs, siRNA and ASO, cells were seeded into 6-well plates at a density of 1×10^5 cells/well and were transfected with oligonucleotides at different concentrations using RNAiMax (Invitrogen, Carlsbad, Calif.) according to the reverse transfection protocol provided by the manufacturer for 72 hours (unless otherwise specified). For Risdiplam treatment of cells, Risdiplam (HY-109101, MedChem Express Company, Monmouth Junction, N.J., USA) dissolved in DMSO was added directly to cells at desired concentration for 72 hours unless specified otherwise.
To amplify both SMN2FL and SMN2 Δ7 in one reaction, cDNA was amplified by semi-quantitative RT-PCR using primers that spans exon 7 of SMN2 (Table 5) (FIG. 2). The PCR reaction conditions were: 94° C. for 2 minutes (1 cycle), 98° C. for 10 seconds, 60° C. for 15 seconds, 72° C. for 32 seconds, cycled for 30 time with a final 5 minutes extension at 72° C. To further differentiate SMN1 mRNA from SMN2, the resultant PCR products of SMN were digested by DdeI restriction enzyme (R0175L, NEB) and then separated by 2% agarose gel. Due to a nucleotide variant on […] of SMN2, a DdeI recognition site exists in PCR products amplified from SMN2 gene but not from SMN1 gene, DdeI digestion releases a 115 bp fragment from both SMN2FL and SMN2 Δ7, resulting […]: 507 (SMN1FL), 338 (SMN2 Δ7), 392 (SMN2FL) and 115 bp (FIG. 2). TBP gene was also amplified as a RNA loading control. The DdeI digestion reaction conditions were: 37° C. for 60 minutes and 65° C. for 20 minutes, 1cycle.

Data set [4] has as its system SMN2 mRNA. Nature of the data set: RT-qPCR of SMN2FL and SMN2 Δ7 mRNA in GM00232 cells. To be noted: GM00232, 72 h. The procedure:
as §1
“GM00232 cells” refers to fibroblast cells provided by Coriell Institute for Medical Research. This cell line is described as SPINAL MUSCULAR ATROPHY I; SMA1. The donor subject has 2 copies of the SMN2 gene (data from several sources including Stabley et al. 2015, PMID 26247043) and is homozygous for deletion of exons 7 and 8 of the SMN1 gene. The relevant gene is SMN1; the chromosomal location is 5q12.2-q13.3, the allelic variant is described as exons 7 and 8 deleted; SPINAL MUSCULAR ATROPHY, TYPE I; and the identified mutation: is EX7-8DEL. The phenotype data derived from a fibroblast from skin (arm) of the following subject characterized as: Progressive muscular atrophy; absent deep tendon reflexes; abnormal EMG; donor subject has 2 copies of the SMN2 gene (data from several sources including Stabley et al. 2015, PMID 26247043) and is homozygous for deletion of exons 7 and 8 of the SMN1 gene.
as §2
For RNA isolation from cultured cells, total cellular RNA was isolated from treated cells using an RNeasy Plus Mini kit (Qiagen, Hilden, Germany) according to its manual. To isolated RNA from animal tissues, tissues were harvested and stored at RNA later (AM7021, Thermo Fisher). Total RNA was then isolated using MagPure Total RNA Micro LQ kit (Magen, R6621, China) by auto-pure96 machine (ALLSHENG, China). The resultant RNA (1 μg) was reverse transcribed into cDNA by using a PrimeScript RT kit containing gDNA Eraser (Takara, Shlga, Japan). The resultant cDNA was amplified in an ABI 7500 Fast Real-time PCR System (Applied Biosystems; Foster City, Calif.) using SYBR Premix Ex Taq 11 (Takara, Shlga, Japan) reagents and primers which specifically amplified full-length (SMN2FL) or A7 SMN2 mRNA (SMN2 Δ7) (FIG. 1). The reaction conditions were: 95° C. for 3 seconds (1 cycle) and 60° C. for 30 seconds (40 cycles). Amplification of TBP gene served as an internal control.
The source holds these as a separate data set.

Where [5] appears, read: PCR/digestion (Example 1, FIG. 3E).

Regarding `Cc1cn2nc(-c3cc(=O)n4cc(N5CCNC6(CC6)C5)ccc4n3)cc(C)c2n1` [Risdiplam], the “SMN2FL mRNA fold change” value with SMN2 mRNA [1] (50 nM (Example 6, FIG. 8A-8C)) is listed as 1.2 fold; in the data set on SMN2 mRNA [1] (250 nM (Example 6)), 1.8 fold; with SMN2 mRNA [1] (1250 nM (Example 6)), 1.9 fold; in the data set on SMN2 mRNA [2] (1250 nM, PCR/DdeI digestion (Example 6, FIG. 8D-8F)), 2.3 fold; in the data set on SMN2 mRNA [3] (1250 nM, PCR/DdeI digestion (Example 8, FIG. 10D-10F)), 2.1 fold. Moreover, in the data set on SMN2 mRNA [1] (50 nM, 250 nM and 1250 nM (Example 6)), the “SMN2 Δ7 mRNA change” value is given as “decrease”.

Regarding “DS06-0004: saRNA targeting SMN2 promoter at -281; SEQ ID NO: 476/477 (Table 8: SEQ ID NO: 131/288) (chain 1 AGACGAGGCCUAAGCAACATT; chain 2 UGUUGCUUAGGCCUCGUCUTT; chemistry not given here)”, the “SMN2 Δ7 mRNA fold change” value came out at 1.5 fold with SMN2 mRNA [4] (1 nM (Example 2)); 1.9 fold in the data set with SMN2 mRNA [4] (5 nM (Example 2)); 1.6 fold in the data set with SMN2 mRNA [1] (1 nM (Example 6)); 1.6 fold with SMN2 mRNA [1] (5 nM (Example 6)); 2.1 fold in the data set on SMN2 mRNA [1] (25 nM (Example 2)); 1.7 fold with SMN2 mRNA [1] (25 nM (Example 6)). For the same compound, the “SMN2FL mRNA fold change” value in the data set with SMN2 mRNA [4] (1 nM (Example 2, FIG. 4A)) worked out at 1.7 fold; in the data set on SMN2 mRNA [4] (5 nM (Example 2)), 2.4 fold; with SMN2 mRNA [4] (25 nM (Example 2)), 2.4 fold; with SMN2 mRNA [1] (1 nM (Example 6)), 1.8 fold; in the data set with SMN2 mRNA [1] (5 nM (Example 6)) it was 2.1 fold; in the data set with SMN2 mRNA [1] (25 nM (Example 6)) it was 2.0 fold.

Consider Nusinersen [ASO-10-27], for which the “SMN2FL mRNA fold change” value in the data set with SMN2 mRNA [4] (1 nM (Example 2, FIG. 4A)) was found to be 1.3 fold; with SMN2 mRNA [4] (5 nM (Example 2)) it was 1.8 fold; in the data set with SMN2 mRNA [4] (25 nM (Example 2)), 1.9 fold; with SMN2 mRNA [2] (25 nM, PCR/DdeI digestion (Example 2, FIG. 4B-4C)) it was 2.3 fold; in the data set on SMN2 mRNA [3] (25 nM, semi-quantitative RT-PCR/DdeI digestion (Example 4, FIG. 6B-6C)), 2.1 fold; in the data set with SMN2 mRNA [3] (alone or in combination at 10 nM, semi-quantitative RT-PCR (Example 10, FIG. 12B-12C)), 1.4 fold. In addition, the “SMN2 Δ7 mRNA change” value with SMN2 mRNA [4] (1 nM, 5 nM and 25 nM (Example 2)) is reported as “decrease”. Also, in the data set on SMN2 mRNA [3] (setting [5]), the “concentration at which expression of SMN2FL reached its peak” value is recorded as 10 nM. For the same compound, the “concentration at which expression of SMNΔ7 almost approached the lowest value” with SMN2 mRNA [3] (setting [5]) is listed as 5 nM.
